Test results as given in patent US20250257361A1, “COMPOSITIONS AND METHODS FOR TREATING LIVER DISEASES WITH SIRNAS TARGETING SMYD2” (The Board of Regents of The University of Texas System, priority 2022, published 2025).
pIC50: −log10 of the molar value.

What was measured:
WD NASH model = system: WD NASH model
Protocol: FIG. 6A. Experimental design for pre-clinical testing of AZ505 in the WD NASH model. WD was given at 8 weeks of age for a total of 2 months. AZ505 treatment started one day after WD was initiated. Vehicle (2.5% DMSO in saline) or AZ505 (10 mg/kg in saline containing 2.5% DMSO) was given to mice intraperitoneally 3 times per week. FIG. 6B. Body weight of vehicle or AZ505 treated mice before and after 2 months of WD (n=15 and 14 mice). FIGS. 6C-6D. Liver weight and liver/body weight ratios of vehicle or AZ505 treated mice after 2 months of WD (n=15 and 14). FIG. 6E. Representative liver pictures and H&E staining of liver sections for vehicle or AZ505 treated mice after 2 months of WD. FIGS. 6F-6G. Liver function analysis using plasma ALT and AST (n=15 and 14). FIGS. 6H-6I. Liver triglyceride and cholesterol analysis (n=15 and 14). FIGS. 6J-6K. Plasma triglyceride and cholesterol analysis (n=15 and 14).
In order to determine if chemical SMYD2 inhibition could serve as orthogonal validation of the genetic findings, and to investigate the therapeutic potential of SMYD2 blockade in fatty liver disease, AZ505 was used. […] WD was fed to WT mice at 8 weeks of age, followed by treatment with vehicle control or AZ505 with a dose of 10 mg/kg (intraperitoneal injection) three times per week (FIG. 6A).
All mice were handled in accordance with the guidelines of the Institutional Animal Care and Use Committee at UT Southwestern. All experiments were done in an age and sex controlled fashion unless otherwise noted. C57BL/6 strain background mice were used for all the experiments. LSL-tdTomato (strain #007914) and Rosa-rtTA; TetO-Cas9 mice (#029415) were obtained from The Jackson Laboratory. Mice homozygous for both Rosa-rtTA and TetO-Cas9 were used to ensure a high Cas9 expression level in the liver. Western Diet (WD) used for NASH modeling is described in (Tsuchida et al., 2018). It is composed of high fat solid food (ENVIGO #TD.120528) and high sugar water containing 23.1 g/L d-fructose (Sigma-Aldrich #F0127) and 18.9 g/L d-glucose (Sigma-Aldrich #G8270).
Liver pieces were fixed in buffered formalin (Fisherbrand #245-685) for 24 h with gentle shaking at 4° C. and then transferred to 70% EtOH for another 24 h with shaking at 4° C. Paraffin embedding, liver sectioning (4 μm thickness), and H&E staining were performed at the UT Southwestern Tissue Management Shared Resource Core. For IHC staining, the following primary antibodies were used: Pten (CST #9559, IHC 1:200); Ki67 (Abcam #AB15580, IHC 1:200). IHC). IHC was performed as previously described (Zhu et al., 2010). TUNEL staining was performed on paraffin embedded liver sections using In Situ Cell Death Detection Kit, Fluorescein (Roche #C755B40) according to the manufacturer's protocol. QuPath software (https://qupath.github.io/) was used to quantify Ki67 and TUNEL staining.
The supernatant after centrifugation (plasma) was analyzed for AST, ALT, cholesterol, and triglyceride using VITROS MicroSlide Technology at the UT Southwestern Metabolic Phenotyping Core. 100-150 mg of liver per sample was weighted and used for lipid extraction and quantification at the UT Southwestern Metabolic Phenotyping Core.

SMYD2 = SMYD2 (Homo sapiens, UniProt Q9NRG4); conditions: cited from earlier work
Chain of SMYD2 (Q9NRG4 whole entry, species assumed): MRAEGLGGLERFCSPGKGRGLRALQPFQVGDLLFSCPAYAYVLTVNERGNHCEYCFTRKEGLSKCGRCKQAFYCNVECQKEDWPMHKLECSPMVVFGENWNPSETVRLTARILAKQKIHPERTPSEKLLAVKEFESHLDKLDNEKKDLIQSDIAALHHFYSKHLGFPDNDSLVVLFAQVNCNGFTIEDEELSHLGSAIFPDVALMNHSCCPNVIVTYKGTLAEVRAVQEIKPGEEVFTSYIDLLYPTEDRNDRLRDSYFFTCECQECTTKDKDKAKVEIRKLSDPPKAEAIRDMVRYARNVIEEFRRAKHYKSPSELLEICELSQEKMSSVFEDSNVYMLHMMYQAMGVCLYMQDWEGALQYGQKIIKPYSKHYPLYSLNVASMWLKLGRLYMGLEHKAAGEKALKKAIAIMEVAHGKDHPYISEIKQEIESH

human SMYD2 = assay: SMYD2 luciferase reporter assay (dual Renilla/Firefly) for siRNA knockdown in Cos7 cells; type: cell-based; conditions: psiCheck2 human Smyd2 luciferase reporter and siRNA co-transfected, 24 h, triplicates (Table 2; text says 48 hours)
[1] = AZ505 10 mg/kg i.p. 3 times per week vs. vehicle, 2 months WD

Compound	% mRNA remaining (compared to Ctrl siRNA) (human SMYD2) [%]	further results
O=C1COc2c(CCNCCN(C(=O)CCNCCc3ccc(Cl)c(Cl)c3)C3CCCCC3)ccc(O)c2N1 [AZ505]		body weight (WD NASH model; [1]): significant reductions; liver appearance (WD NASH model; [1]): Smaller, less pale livers; liver cholesterol (WD NASH model; [1]): modest increase; liver triglycerides (WD NASH model; [1]): significant decrease; liver weight (WD NASH model; [1]): significant reductions; liver/body weight ratios (WD NASH model; [1]): significant reductions; plasma lipids (triglyceride and cholesterol) (WD NASH model; [1]): modest increase; steatosis (liver histology, H&E) (WD NASH model; [1]): dramatically decreased steatosis; transaminitis (plasma ALT and AST) (WD NASH model; [1]): improved; fatty liver disease (overall effect) (WD NASH model; WD NASH model, AZ505 10 mg/kg i.p. 3 times per week, 2 months): ameliorates; tolerability of dose (WD NASH model; mouse, in vivo): well tolerated; pIC50 (SMYD2; SMYD2): 6.92; selectivity for SMYD2 (SMYD2): > 600 fold
SMYD2 310: siRNA to human SMYD2; sense GGAGACUGUAAGACUAACAUU (SEQ 63), antisense UGUUAGUCUUACAGUCUCCUU (SEQ 120) (listed as RNA, chemistry not given here)	24.0	
SMYD2 416-438: siRNA to human SMYD2; sense GAUAAGUUAGACAAUGAGAAG (SEQ 73), antisense UCUCAUUGUCUAACUUAUCCA (SEQ 130) (listed as RNA, chemistry not given here)	28.5	
SMYD2 493: siRNA to human SMYD2; sense CGGAUUCCCUGACAAUGAUUU (SEQ 66), antisense AUCAUUGUCAGGGAAUCCGUU (SEQ 123) (listed as RNA, chemistry not given here)	20.0	
SMYD2 675: siRNA to human SMYD2; sense GAGCUGUACAGGAAAUCAAUU (SEQ 64), antisense UUGAUUUCCUGUACAGCUCUU (SEQ 121) (listed as RNA, chemistry not given here)	121.4	
SMYD2 706-728: siRNA to human SMYD2; sense GGUUUUUACCAGCUAUAUUGA (SEQ 70), antisense AAUAUAGCUGGUAAAAACCUC (SEQ 127) (listed as RNA, chemistry not given here)	53.2	
SMYD2 736: siRNA to human SMYD2; sense CCCAACGGAAGAUAGAAAUUU (SEQ 61), antisense AUUUCUAUCUUCCGUUGGGUU (SEQ 118) (listed as RNA, chemistry not given here)	115.1	
SMYD2 750-772: siRNA to human SMYD2; sense GAAAUGACCGGUUAAGAGAUU (SEQ 78), antisense UCUCUUAACCGGUCAUUUCUA (SEQ 135) (listed as RNA, chemistry not given here)	26.5	
SMYD2 757: siRNA to human SMYD2; sense CCGGUUAAGAGAUUCUUAUUU (SEQ 59), antisense AUAAGAAUCUCUUAACCGGUU (SEQ 116) (listed as RNA, chemistry not given here)	82.3	
SMYD2 758-780: siRNA to human SMYD2; sense CGGUUAAGAGAUUCUUAUUUC (SEQ 75), antisense AAUAAGAAUCUCUUAACCGGU (SEQ 132) (listed as RNA, chemistry not given here)	38.8	
SMYD2 759-781: siRNA to human SMYD2; sense GGUUAAGAGAUUCUUAUUUCU (SEQ 71), antisense AAAUAAGAAUCUCUUAACCGG (SEQ 128) (listed as RNA, chemistry not given here)	37.7	
SMYD2 767-789: siRNA to human SMYD2; sense GAUUCUUAUUUCUUUACCUGU (SEQ 76), antisense AGGUAAAGAAAUAAGAAUCUC (SEQ 133) (listed as RNA, chemistry not given here)	46.4	
SMYD2 894: siRNA to human SMYD2; sense CACGCAACGUCAUUGAAGAUU (SEQ 68), antisense UCUUCAAUGACGUUGCGUGUU (SEQ 125) (listed as RNA, chemistry not given here)	18.3	
SMYD2 1077: siRNA to human SMYD2; sense CCCUGCAAUAUGGACAGAAUU (SEQ 65), antisense UUCUGUCCAUAUUGCAGGGUU (SEQ 122) (listed as RNA, chemistry not given here)	72.7	
SMYD2 1078: siRNA to human SMYD2; sense CCUGCAAUAUGGACAGAAAUU (SEQ 62), antisense UUUCUGUCCAUAUUGCAGGUU (SEQ 119) (listed as RNA, chemistry not given here)	107.5	
SMYD2 1082-1104: siRNA to human SMYD2; sense CAAUAUGGACAGAAAAUCAUU (SEQ 74), antisense UGAUUUUCUGUCCAUAUUGCA (SEQ 131)	35.2	
SMYD2 1249: siRNA to human SMYD2; sense CGGCAAAGAUCAUCCAUAUUU (SEQ 60), antisense AUAUGGAUGAUCUUUGCCGUU (SEQ 117) (listed as RNA, chemistry not given here)	110.9	
SMYD2 1251-1273: siRNA to human SMYD2; sense GCAAAGAUCAUCCAUAUAUUU (SEQ 77), antisense AUAUAUGGAUGAUCUUUGCCG (SEQ 134) (listed as RNA, chemistry not given here)	30.0	
SMYD2 1252-1274: siRNA to human SMYD2; sense CAAAGAUCAUCCAUAUAUUUC (SEQ 69), antisense AAUAUAUGGAUGAUCUUUGCC (SEQ 126) (listed as RNA, chemistry not given here)	13.1	
SMYD2 1276-1298: siRNA to human SMYD2; sense GAUCAAACAGGAAAUUGAAAG (SEQ 72), antisense UUCAAUUUCCUGUUUGAUCUC (SEQ 129) (listed as RNA, chemistry not given here)	26.6	
SMYDS 588: siRNA to human SMYD2; sense CAGCGAUAUUUCCUGAUGUUU (SEQ 67), antisense ACAUCAGGAAAUAUCGCUGUU (SEQ 124) (listed as RNA, chemistry not given here)	26.3	
